Experimental data taken from patent publication US9480695B2, “Methods for inducing orexin neurons and agent for treating narcolepsy or eating disorder” (THE UNIVERSITY OF TOKYO, priority 2011, dated 2016).

Columns and labels:
Assay type in all cases: cell-based
[1] = system: human iPS cell strain 201B7; test: Hcrt expression with ManNAc plus Sirt inhibitor and Ogt inhibitor, neural differentiation from human iPS cell, RT-PCR; settings: ManNAc 1.0 mM from 0th day, EX-527 50 nM and/or BADGP 5 mM on 14th day, collected 20th day; FIG. 10
Protocol: A human iPS cell strain 201B7 (HSP0001) was obtained from Riken BioResource Center via National BioResource Project (MEXT, Japan). The human iPS cell was maintained on a feeder layer of a mitomycin C-treated STO/Neo resistant/LIF (SNL) feeder cell in a primate ES medium (ReproCELL) complemented with 5 ng/mL recombinant human bFGF (Wako). The human iPS cell was co-cultured with PA6 for 20 days, for differentiation induction into a nerve with a SIDA and BMP4 system. From 7th day, 5 nM BMP4 was complemented. A detailed protocol of differentiation induction into a nerve cell is shown in the lower column of FIG. 11. From the initiation of differentiation culturing (0th day), ManNAc was added to a neural differentiation medium so that the concentration became 1.0 mM, and on 7th, 10th and 14th days of differentiation culturing, the medium was exchanged. In addition, from 7th day of differentiation culturing, 5 nM recombinant human BMP4 (Wako) was added. On 14th day of differentiation culturing, EX-527 (SIGMA-ALDRICH) was added to a neural differentiation medium so that the concentration became 50 nM, or BADGP (SIGMA-ALDRICH) was added to a neural differentiation medium so that the concentration became 5 mM, and on 20th day of differentiation culturing, cells were collected and subjected to RT-PCR. The conditions of RT-PCR are the same as those of Example 1.

[2] = system: Mouse ES cells (J1 strain); test: Hcrt expression with ManNAc plus Sirt inhibitor or Ogt inhibitor, neural differentiation from mouse ES cell, RT-PCR; settings: ManNAc 1.0 mM from 0th day, EX-527 50 nM on 7th day, collected 10th day; FIG. 8
Protocol: According to the same manner as that described in Example 1, mouse ES cells (J1 strain) were cultured for 10 days for differentiation induction into a nerve cell. A protocol of inducing differentiation into a nerve cell is shown in the upper column of FIG. 11. From the initiation of differentiation culturing (0th day), ManNAc was added to a neural differentiation medium so that the concentration became 1.0 mM, and the medium was exchanged on 4th and 7th days of differentiation culturing. In addition, from 4th day of differentiation culturing, 5 nM recombinant human BMP4 (Wako) was added. On 7th day of differentiation culturing, EX-527 (SIGMA-ALDRICH) was added to a neural differentiation medium so that the concentration became 50 nM or BADGP (SIGMA-ALDRICH) was added to a neural differentiation medium so that the concentration became 1 or 5 mM, and on 10th day of differentiation culturing, cells were collected and subjected to RT-PCR. The conditions of RT-PCR are the same as those of Example 1.

[3] = system: Mouse ES cells (J1 strain); test: Induction of Hcrt expression in neural differentiation from mouse ES cells, SDIA differentiation culture system, RT-PCR; settings: for Expression of Hcrt with changed time of addition: 1.0 mM, addition time varied, FIG. 3; for Expression of an orexin gene (Hcrt): added from initiation of differentiation culturing at 0.2 and 1.0 mM, cells collected on 10th day, FIG. 2
Protocol: Mouse ES cells (J1 strain) which had been maintained in a medium for an ES cell [DMEM (Wako) added with 15% FBS (Biowest), 1 mM sodium pyruvate (Invitrogen), […] (Invitrogen), 2 mM L-glutamine (Invitrogen), 1 mM non essential amino acid (Invitrogen), 50 U/ml penicillin/50 μg/ml streptomycin (Invitrogen), 2000 U leukemia inhibitory factor (Chemicon, CA)] were seeded on a 10 cm culture dish so that the cell count became 1×10^5 cells per culture dish on which PA6 stromal cells had been seeded in advance, and differentiation induction was performed in a medium for neural differentiation [Glasgow MEM (Invitrogen) added with 10% KSR (Invitrogen), […] (Invitrogen), 1 mM non essential amino acid (Invitrogen), 50 U/ml penicillin/50 μg/ml streptomycin (Invitrogen)] for 10 days. On 4th and 7th days of differentiation culturing, the medium was exchanged. In addition, from 4th day of differentiation culturing, 5 nM recombinant human BMP4 (Wako) was added (FIG. 1). On 10th day of differentiation culturing, cells were collected and pelletized by a centrifugation operation to remove the culture medium. Thereafter, the pellets were immediately frozen in liquid nitrogen and stored at −80° C. until use.
The total RNA was extracted from the collected cells using RNeasy plus Mini Kit (QIAGEN). Then, a reverse transcription reaction was performed in a reaction liquid containing 1 μg of the total RNA, and Oligo (dT) using SuperScript III First Strand Synthesis System (Invitrogen) to synthesize a cDNA.
A PCR reaction was performed on a 10 μl scale, 1 U of LA-Taq DNA Polymerase (Takara) was added to 0.5 μl of a cDNA, 5 μl of 2×GC Buffer I, each 200 μM of dNTP, 1.5 mM MgCl2, and each primer having a final concentration of 0.2 μM, thermal denaturation was performed at 95° C. for 3 minutes, and the reaction was performed under the condition of (30 seconds at 95° C., 30 seconds at 55° C., and 30 seconds at 72° C.)×35 cycles (20 cycles in the case of Actb). The primers used are shown below.
Each PCR product was electrophoresed on a 2% agarose gel, stained with ethidium bromide, and a band was observed by UV irradiation.

[4] = system: Mouse ES cells (J1 strain); test: Hcrt expression in mouse ES cells, SFEB/gfCDM differentiation culture system, RT-PCR; settings: 1.0 mM from 7th day of differentiation culturing; cells collected on 25th day; FIG. 5
Protocol: Mouse ES cells (J1 strain) which had been maintained in a medium for an ES cell were seeded on a 96-well low adhering round-bottom culture dish (Nunc) so that the cell count became 10,000 cells per well, and cultured with gfCDM [IMDM/F12 (Invitrogen) added with 5 mg/ml BSA (SIGMA), 450 μM Monothioglycerol (Wako), 1× chemically defined lipid concentrate (Invitrogen), 50 U/ml penicillin/50 μg/ml streptomycin] for 7 days. The cells were cultured in 150 μl of a medium per well. On 7th day of differentiation culturing, the medium was exchanged with a DFK medium [DMEM/F12 (Invitrogen) added with 7 g/1 glucose, 10% KSR, 50 U/ml penicillin/50 μg/ml streptomycin], and on 10th day, half the amount of the medium was exchanged with a DFNB medium [7 g/1 glucose, 1×N2 (Wako), 1×B27 (Invitrogen)] containing 10 ng/ml CNTF. On 13th day of culturing, cells were detached with 0.05% trypsin/EDTA, seeded on a culture dish (Falcon) which had been treated with poly-D-lysine/laminin so that the cell count became 4.8×10^6 cells per 10 cm culture dish, and cultured in a DFNB medium containing 10% FBS, 10 ng/ml CNTF, 50 ng/ml BDNF and 50 ng/ml NT3. The medium was exchanged every 3 days. On 25th day of differentiation culturing, cells were collected and pelletized by a centrifugation operation to remove the culture medium. Thereafter, the pellets were immediately frozen in liquid nitrogen, and stored at −80° C. until use.
The analysis was performed by the same method as that of Example 1.

## NC(=O)C1CCCc2c1[nH]c1ccc(Cl)cc21 (stereo not shown) [EX-527, 6-chloro-2,3,4,9-tetrahydro-1H-carbazole-1-carboxamide, reference compound]
[1]
  Expression of an orexin gene (Hcrt): recognized in a ManNAc-added section and an EX-527-added section to the same extent
[2]
  Expression of an orexin gene (Hcrt): expression of Hcrt was recognized

## CC(=O)N[C@H]1C(O)O[C@H](CO)[C@@H](O)[C@@H]1O (stereo partly drawn) [GlcNAc, N-acetyl-D-glucosamine]
[3]
  Expression of Hcrt with changed time of addition: observed only in a ManNAc-added section
  Expression of an orexin gene (Hcrt): recognized only in a ManNAc-added section

## CC(=O)N[C@H]1[C@H]([C@H](O)[C@H](O)CO)OC(O)(C(=O)O)C[C@@H]1O (stereo partly shown) [Neu5Ac, N-acetylneuraminic acid]
[3]
  Expression of Hcrt with changed time of addition: observed only in a ManNAc-added section
  Expression of an orexin gene (Hcrt): recognized only in a ManNAc-added section
[4]
  Expression of Hcrt: expression of Hcrt was recognized
